US7579013B2, “Formulations for coated microprojections containing non-volatile counterions” (Alza Corporation, priority 2003, dated 2009)

Assay: Solubility in water
Format: physicochemical
Conditions: at pH about 5

- solubility in water (concentration): > 20%
SMILES: CC[C@H](C)[C@H](NC(=O)[C@H](CCC(=O)O)NC(=O)[C@H](CO)NC(=O)[C@@H](NC(=O)[C@@H](N)CO)C(C)C)C(=O)N[C@@H](CCC(N)=O)C(=O)N[C@@H](CC(C)C)C(=O)N[C@@H](CCSC)C(=O)N[C@@H](Cc1cnc[nH]1)C(=O)N[C@@H](CC(N)=O)C(=O)N[C@@H](CC(C)C)C(=O)NCC(=O)N[C@@H](CCCCN)C(=O)N[C@@H](Cc1cnc[nH]1)C(=O)N[C@@H](CC(C)C)C(=O)N[C@@H](CC(N)=O)C(=O)N[C@@H](CO)C(=O)N[C@@H](CCSC)C(=O)N[C@@H](CCC(=O)O)C(=O)N[C@@H](CCCN=C(N)N)C(=O)N[C@H](C(=O)N[C@@H](CCC(=O)O)C(=O)N[C@@H](Cc1c[nH]c2ccccc12)C(=O)N[C@@H](CC(C)C)C(=O)N[C@@H](CCCN=C(N)N)C(=O)N[C@@H](CCCCN)C(=O)N[C@@H](CCCCN)C(=O)N[C@@H](CC(C)C)C(=O)N[C@@H](CCC(N)=O)C(=O)N[C@@H](CC(=O)O)C(=O)N[C@H](C(=O)N[C@@H](Cc1cnc[nH]1)C(=O)N[C@@H](CC(N)=O)C(=O)N[C@@H](Cc1ccccc1)C(=O)O)C(C)C)C(C)C [hPTH(1-34)]
